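Grown in 96-well plates, cells were treated for 48 hours with each compound at five concentrations. Insufficient inhibition: endpoint recorded as highest concentration tested. TGI marks complete inhibition of growth.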

Test systems include LOX IMVI melanoma; OVCAR-8 ovarian; SR leukemia; NCI-H522 lung; EKVX NSCLC; SN12C renal; KM12 colon; HL-60(TB) leukemia; IGROV1 ovarian; PC-3 prostate.
Experiment in all cases: NCI-60 cell line screen, 48 h

Take `CC(C)C(=O)/C=C/c1ccc(Br)cc1`: the TGI in the experiment on LOX IMVI melanoma turned out to be 32.1 µM; in the experiment with OVCAR-8 ovarian, 62.9 µM; in the experiment with SR leukemia, 53.6 µM; in the experiment with NCI-H522 lung, 41.5 µM; in the experiment with EKVX NSCLC, 50.9 µM; in the experiment with SN12C renal, 28.5 µM. Besides, the TGI with KM12 colon stood at 27.5 µM; in the experiment with HL-60(TB) leukemia, 41.2 µM; with IGROV1 ovarian it was 34.5 µM.

For `Cc1[nH]c(=O)[nH]c(=O)c1/C=C/C(=O)O`, the TGI in the experiment on LOX IMVI melanoma, in the experiment with OVCAR-8 ovarian, in the experiment on NCI-H522 lung, in the experiment on EKVX NSCLC, in the experiment with SN12C renal and with KM12 colon was above 1000 µM each time. Also, the TGI with HL-60(TB) leukemia and in the experiment on IGROV1 ovarian was above 1000 µM throughout.

In the case of `O=C(NCCCCCCNCc1cccc2ccccc12)Nc1cccc2ccccc12`, the TGI in the experiment with LOX IMVI melanoma, with OVCAR-8 ovarian, in the experiment on NCI-H522 lung, in the experiment on EKVX NSCLC, in the experiment on PC-3 prostate and with SN12C renal was above 100 µM throughout. In addition, the TGI in the experiment with KM12 colon, in the experiment with HL-60(TB) leukemia and with IGROV1 ovarian was above 100 µM each time.

With `Nc1ccc2[nH]c3c(-c4ccccc4)nccc3c2c1`, the TGI in the experiment on LOX IMVI melanoma, in the experiment on OVCAR-8 ovarian, with NCI-H522 lung, in the experiment with EKVX NSCLC, with SN12C renal and with KM12 colon was above 100 µM in each case. The TGI in the experiment on HL-60(TB) leukemia is 38.2 µM; in the experiment with IGROV1 ovarian it was above 100 µM.

With `COC(=O)C1=C2SCc3cccc(c3)CSC3=C(C(=O)OC)SC(=C(S2)S1)S3`, the TGI in the experiment on PC-3 prostate is above 100 µM; with SN12C renal it was above 100 µM; with KM12 colon it was above 100 µM; with HL-60(TB) leukemia it was 80.9 µM.

`O=C1c2ccccc2CCCCCCCCCCC12OCCCO2`: the TGI in the experiment with LOX IMVI melanoma was 84.8 µM; in the experiment with OVCAR-8 ovarian it was above 100 µM; with NCI-H522 lung, 67.2 µM; with SN12C renal, above 100 µM; with KM12 colon, above 100 µM; in the experiment with HL-60(TB) leukemia, 40.1 µM. Besides, the TGI with IGROV1 ovarian was above 100 µM.

For the compound `CC(=O)Nc1cc2c(s1)CCC1CC(=O)NN=C21` (configuration not stated), the TGI with LOX IMVI melanoma, in the experiment with OVCAR-8 ovarian, with SR leukemia, in the experiment with NCI-H522 lung, in the experiment on EKVX NSCLC and in the experiment with SN12C renal was above 100 µM throughout. Also, the TGI with KM12 colon, with HL-60(TB) leukemia and in the experiment on IGROV1 ovarian was above 100 µM in each case.

As to `COC(=O)C1=C(C(=O)OC)SC2(S1)C1=C(CCCC1)SC(C(=O)OC)=C2C(=O)OC`, the TGI in the experiment on LOX IMVI melanoma was determined as 5.3 µM; in the experiment on OVCAR-8 ovarian, 17.3 µM; in the experiment on NCI-H522 lung, 4.36 µM; in the experiment on EKVX NSCLC it was 26.6 µM; in the experiment on PC-3 prostate, 17.8 µM; in the experiment with SN12C renal, 14.6 µM. Moreover, the TGI with KM12 colon was 19 µM; in the experiment with HL-60(TB) leukemia, above 100 µM; in the experiment with IGROV1 ovarian it was 20.6 µM.

Turning to `COC(=O)[C@@H]1CCCN1CCN1CCC[C@H]1C(=O)OC`, the TGI in the experiment with OVCAR-8 ovarian is above 100 µM; in the experiment on SR leukemia, 86.6 µM; with NCI-H522 lung, above 100 µM; in the experiment with PC-3 prostate, above 100 µM; in the experiment on SN12C renal, above 100 µM; with KM12 colon, above 100 µM.

As for `Nn1c(CCCCCCCCc2nnc(COc3ccc(Cl)cc3)n2N)nnc1COc1ccc(Cl)cc1`, the TGI with NCI-H522 lung, in the experiment on EKVX NSCLC, with PC-3 prostate, with SN12C renal, in the experiment on KM12 colon and in the experiment on IGROV1 ovarian was above 100 µM throughout.

For the compound `O=C(NC(Cc1ccc(I)cc1)C(=O)O)c1ccc(Br)cc1` (configuration not stated), the TGI in the experiment on LOX IMVI melanoma was above 100 µM; in the experiment with OVCAR-8 ovarian, above 100 µM; in the experiment with NCI-H522 lung, above 100 µM; with EKVX NSCLC, 31 µM; in the experiment with SN12C renal it was above 100 µM; in the experiment with KM12 colon it was above 100 µM. In addition, the TGI with HL-60(TB) leukemia and in the experiment with IGROV1 ovarian was above 100 µM in each case.

As to `CNC(=O)Oc1ccc(-c2cn3cc(OC(=O)NC)ccc3n2)cc1`, the TGI in the experiment on LOX IMVI melanoma, with OVCAR-8 ovarian, in the experiment with SR leukemia, in the experiment on EKVX NSCLC, in the experiment on PC-3 prostate and in the experiment on SN12C renal was above 100 µM in each case. The TGI in the experiment on KM12 colon and in the experiment with IGROV1 ovarian was above 100 µM in each case.

Regarding `N#Cc1c(-c2ccccc2)nc(-c2ccccc2)sc1=S`, the TGI in the experiment with LOX IMVI melanoma, with OVCAR-8 ovarian, in the experiment with EKVX NSCLC, in the experiment on SN12C renal, with KM12 colon and in the experiment with HL-60(TB) leukemia was above 100 µM each time. The TGI in the experiment on IGROV1 ovarian is above 100 µM.

`CC1CCOc2ccc(cc2)C=Nc2ccc(cc2)CCc2ccc(cc2)N=Cc2ccc(cc2)OCC1` (configuration not stated): the TGI with LOX IMVI melanoma, with OVCAR-8 ovarian, in the experiment on SR leukemia, in the experiment with NCI-H522 lung, in the experiment with EKVX NSCLC and with PC-3 prostate was above 100 µM each time. Also, the TGI in the experiment with SN12C renal, in the experiment on KM12 colon and in the experiment on IGROV1 ovarian was above 100 µM throughout.

Regarding `Cc1cn(C2CC(n3cc(Cn4cc(Br)c(=O)[nH]c4=O)nn3)C(CO)O2)c(=O)[nH]c1=O` (configuration not stated), the TGI in the experiment on LOX IMVI melanoma, with OVCAR-8 ovarian, with EKVX NSCLC, with PC-3 prostate, in the experiment with SN12C renal and in the experiment on KM12 colon was above 100 µM each time. Further, the TGI with IGROV1 ovarian is above 100 µM.

In the case of `CC1=NN(c2ccc(S(=O)(=O)O)cc2)C2(C1)SCC(=O)N2c1nc2ccccc2s1` (configuration not stated), the TGI in the experiment with LOX IMVI melanoma, in the experiment with OVCAR-8 ovarian, in the experiment with NCI-H522 lung, with EKVX NSCLC, in the experiment on PC-3 prostate and in the experiment with SN12C renal was above 100 µM in each case. Moreover, the TGI in the experiment on KM12 colon and with IGROV1 ovarian was above 100 µM in each case.

Source of the values: PubChem BioAssay (NCI).
